From patent US10934303B2, “Aryl ethene derivative and pharmaceutical composition containing same as active ingredient” (priority 2016, dated 2021)
Like-named read-outs stand apart in the source and are kept apart here.

How the values were obtained:
[1] = 1 μM, 30 minutes, 37° C., NADPH
in vitro = in vitro ADME; parameters: Papp at 5 h: dose or concentration left out as unconfirmed; conditions: PBS pH 7.4, 25° C.; for Permeability Pampa: 5 hours
[2] = 1 μM, 30 minutes, 37° C., NADPH; remark: listed apart in the source
[3] = 1 μM, 30 minutes, 37° C., NADPH; remark: listed apart in the source
[4] = 1 μM, 30 minutes, 37° C., NADPH; remark: listed apart in the source
Description: 2) Microsomal Stability Evaluation
Four liver microsomes (Human, Dog, Rat, Mouse 0.5 mg/ml) with a 0.1 M phosphate buffer solution (pH 7.4), and the arylethene derivative of the present invention were added to a concentration of 1 μM, culturing was performed at 37° C. for 5 minutes in advance, a NADPH regeneration system solution was added thereto, and culturing was performed at 37° C. for 30 minutes. Thereafter, in order to complete the reaction, an acetonitrile solution containing an internal standard material (chlorpropamide) was added thereto, centrifugation (14,000 rpm, 4° C.) was performed for 5 minutes, and a supernatant was injected into a LC-MS/MS system to analyze the substrate drug, thereby evaluating metabolism stability to the arylethene derivative of the present invention.

CYP2C9 = CYP2C9 (Homo sapiens (Human), UniProt P11712); assay: Cytochrome P450 activity inhibition, CYP2C9; type: in vitro ADME; conditions: 10 μM, human liver microsomes, Diclofenac substrate
Description: (§1) 1) Cytochrome P450 (CYP450) Activity Inhibition Evaluation

CYP2C19 = CYP2C19 (Homo sapiens (Human), UniProt P33261); assay: Cytochrome P450 activity inhibition, CYP2C19; type: in vitro ADME; conditions: 10 μM, human liver microsomes, S-mephenytoin substrate
Description: as §1

CYP2D6 = CYP2D6 (Homo sapiens (Human), UniProt P10635); assay: Cytochrome P450 activity inhibition, CYP2D6; type: in vitro ADME; conditions: 10 μM, human liver microsomes, Dextromethorphan substrate
Description: as §1

CYP1A2 = CYP1A2 (Homo sapiens (Human), UniProt P05177); assay: Cytochrome P450 activity inhibition, CYP1A2; type: in vitro ADME; conditions: 10 μM, human liver microsomes, Phenacetin substrate
Description: as §1

CYP3A4 = CYP3A4 (Homo sapiens (Human), UniProt P08684); assay: Cytochrome P450 activity inhibition, CYP3A4; type: in vitro ADME; conditions: 10 μM, human liver microsomes, Midazolam substrate
Description: as §1

ERRγ = type: cell-based
Description: AD293 was cultured in a 24-well plate for 24 hours, using a DMEM High glucose culture medium (Hyclone, USA) to which 0.5% FBS was added at a concentration of 9×10^4/well. The culture medium was replaced with a DMEM High glucose culture medium to which 10% FBS was added, treatment was performed with a mixture of a TransIT-LT1 transfection reagent (Mirus, USA) and pCMX-Gal4-ERRγ, pFR-luciferase reporter plasmid, pCMV-β-gal, and culturing was performed for 24 hours. Thereafter, a luciferase activity assay and a β-gal assay were performed, respectively, with a lysate obtained after treatment with the arylethene derivative of the present invention for 24 hours. All results were derived from three or more independent repetitive experiments.

in vivo = type: in vivo; conditions: rat; for Cmax: read-out: Cmax
Description: An oral administration group fasts the day before.
Blood of each animal is collected at 0 hour.
Into a tail vein of an intravenous administration group (IV), a drug is injected at a dose of 1 mg/kg (syringe).
To an oral administration group (PO), a drug is orally administered at a dose of 10 mg/kg (oral zondec)
After administration, blood of the intravenous administration group was collected through a jugular vein 8 times at 0.08, 0.25, 0.5, 1, 2, 4, 6, and 8 hours. One collected blood amount is 400 to 500 ul.
After administration, blood of the oral administration group was collected through a jugular vein 6 times at 0.25, 0.5, 1, 4, 6 and 8 hours. One collected blood amount is 400 to 500 ul.
Supernatant plasma is collected by a centrifuge.
The supernatant plasma was injected into a LC-MS/MS system and the drug is analyzed.

[5] = activity relative to reference compound GSK5182, 10 μM

Chain of CYP2C9 (P11712 whole entry): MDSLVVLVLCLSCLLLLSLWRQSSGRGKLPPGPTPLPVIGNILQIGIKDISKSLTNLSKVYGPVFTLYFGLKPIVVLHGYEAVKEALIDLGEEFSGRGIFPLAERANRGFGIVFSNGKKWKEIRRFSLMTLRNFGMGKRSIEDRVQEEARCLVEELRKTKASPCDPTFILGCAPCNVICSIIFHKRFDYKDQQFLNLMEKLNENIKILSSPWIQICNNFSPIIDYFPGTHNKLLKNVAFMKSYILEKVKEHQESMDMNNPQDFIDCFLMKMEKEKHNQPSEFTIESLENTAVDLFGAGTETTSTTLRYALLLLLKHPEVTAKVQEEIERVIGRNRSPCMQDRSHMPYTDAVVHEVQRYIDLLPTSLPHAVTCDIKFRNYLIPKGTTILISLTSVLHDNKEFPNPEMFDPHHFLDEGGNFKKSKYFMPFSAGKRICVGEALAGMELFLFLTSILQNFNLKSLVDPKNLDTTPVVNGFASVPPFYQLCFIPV
Chain of CYP3A4 (P08684 whole entry): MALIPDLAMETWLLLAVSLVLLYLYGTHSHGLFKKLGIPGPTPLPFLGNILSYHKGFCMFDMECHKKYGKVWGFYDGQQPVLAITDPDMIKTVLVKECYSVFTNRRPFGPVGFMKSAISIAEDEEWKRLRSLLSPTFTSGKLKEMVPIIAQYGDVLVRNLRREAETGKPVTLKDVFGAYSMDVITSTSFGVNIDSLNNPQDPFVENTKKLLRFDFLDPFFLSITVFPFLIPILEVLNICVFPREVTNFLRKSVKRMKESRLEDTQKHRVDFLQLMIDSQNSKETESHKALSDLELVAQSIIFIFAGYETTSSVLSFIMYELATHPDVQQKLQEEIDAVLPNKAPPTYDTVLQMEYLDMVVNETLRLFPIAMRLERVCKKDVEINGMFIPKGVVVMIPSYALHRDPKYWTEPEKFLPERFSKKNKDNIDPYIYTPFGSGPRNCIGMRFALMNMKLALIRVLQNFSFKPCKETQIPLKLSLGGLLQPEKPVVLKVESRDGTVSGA
Chain of CYP2C19 (P33261 whole entry): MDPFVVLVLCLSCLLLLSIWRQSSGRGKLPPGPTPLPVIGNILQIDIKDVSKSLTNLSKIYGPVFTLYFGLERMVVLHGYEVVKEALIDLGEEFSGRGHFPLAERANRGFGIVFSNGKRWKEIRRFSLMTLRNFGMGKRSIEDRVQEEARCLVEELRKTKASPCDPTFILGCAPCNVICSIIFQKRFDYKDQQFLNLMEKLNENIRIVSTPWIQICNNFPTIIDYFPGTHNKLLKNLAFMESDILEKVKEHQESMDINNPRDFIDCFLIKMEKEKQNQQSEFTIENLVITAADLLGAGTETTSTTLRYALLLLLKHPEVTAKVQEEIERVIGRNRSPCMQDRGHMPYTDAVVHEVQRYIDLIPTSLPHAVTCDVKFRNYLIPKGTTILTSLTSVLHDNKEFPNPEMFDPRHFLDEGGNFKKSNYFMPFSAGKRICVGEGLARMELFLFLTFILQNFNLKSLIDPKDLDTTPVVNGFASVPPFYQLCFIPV
Chain of CYP1A2 (P05177 whole entry): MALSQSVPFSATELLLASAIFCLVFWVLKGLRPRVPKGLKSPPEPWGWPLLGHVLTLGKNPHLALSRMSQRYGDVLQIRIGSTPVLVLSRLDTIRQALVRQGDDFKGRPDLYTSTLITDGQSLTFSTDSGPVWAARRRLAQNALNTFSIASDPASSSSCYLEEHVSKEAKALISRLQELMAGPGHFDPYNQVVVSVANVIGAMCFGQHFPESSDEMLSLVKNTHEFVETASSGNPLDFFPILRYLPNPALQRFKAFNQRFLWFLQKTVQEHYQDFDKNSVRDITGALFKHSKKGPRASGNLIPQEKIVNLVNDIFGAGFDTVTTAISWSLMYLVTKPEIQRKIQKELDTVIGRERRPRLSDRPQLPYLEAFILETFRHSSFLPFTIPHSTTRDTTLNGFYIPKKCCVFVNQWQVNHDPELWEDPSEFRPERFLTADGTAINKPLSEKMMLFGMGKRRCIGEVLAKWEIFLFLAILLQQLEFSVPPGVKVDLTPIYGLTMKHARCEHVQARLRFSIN
Chain of CYP2D6 (P10635 whole entry): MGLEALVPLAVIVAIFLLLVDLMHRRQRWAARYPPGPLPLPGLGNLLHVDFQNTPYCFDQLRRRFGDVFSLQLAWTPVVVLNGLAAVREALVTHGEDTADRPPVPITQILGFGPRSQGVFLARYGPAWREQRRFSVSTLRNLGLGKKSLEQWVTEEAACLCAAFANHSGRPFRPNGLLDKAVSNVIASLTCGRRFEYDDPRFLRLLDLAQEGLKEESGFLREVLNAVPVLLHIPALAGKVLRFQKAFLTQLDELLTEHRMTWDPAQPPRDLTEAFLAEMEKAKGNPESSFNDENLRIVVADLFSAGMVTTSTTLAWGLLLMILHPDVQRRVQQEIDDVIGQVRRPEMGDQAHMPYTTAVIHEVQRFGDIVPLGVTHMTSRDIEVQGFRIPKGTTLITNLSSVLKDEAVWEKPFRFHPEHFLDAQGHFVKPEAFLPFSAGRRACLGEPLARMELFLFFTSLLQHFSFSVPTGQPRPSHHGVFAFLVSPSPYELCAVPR

Row | Structure (SMILES) | MS(Microsomal Stability) (%) rat [1] [%] | Permeability Pampa (in vitro) | MS(Microsomal Stability) (%) dog [2] [%] | MS(Microsomal Stability) (%) mouse [3] [%] | MS(Microsomal Stability) (%) human [4] [%] | CYP inhibition (% of control) 2C9 (CYP2C9) | CYP inhibition (% of control) 2C19 (CYP2C19) | CYP inhibition (% of control) 2D6 (CYP2D6) | CYP inhibition (% of control) 1A2 (CYP1A2) | CYP inhibition (% of control) 3A4 (CYP3A4) | other results
1 | CC(=O)Nc1ccc(/C(=C(\CCCOC(C)=O)c2ccccc2)c2ccc(C3CCN(C4CC4)CC3)cc2)cc1 [Compound 27d] | 67.6 | 0.34 10^−6 cm/s | 43.8 | 17.6 | 63.7 |  |  |  |  |  | 
2 | OCCC/C(=C(/c1ccc(C2=CCN(C3CC3)CC2)cc1)c1cccc(O)c1)c1ccccc1 [Compound 22l] | 53.4 |  | 67.9 | 25.8 | 71.8 | 88.3 % of control | 97 % of control | 99 % of control | 96.2 % of control | 80.7 % of control | 
3 | CN1CCCC1CCOc1ccc(/C(=C(/CCCO)c2ccccc2)c2ccc(Br)cc2)cc1 (centres unmarked) [Compound 13d] | 59.9 |  |  |  | 67.3 | 97 % of control |  | >100 % of control | >100 % of control |  | Papp at 5 h (in vitro; PAMPA, read-out: Permeability Pampa): 0.14 ×10⁻⁶ cm/s
4 | Cc1ccc(/C(=C(\CCCO)c2ccccc2)c2ccc(C3CCNCC3)cc2)cc1 [Compound 20k] | 89.0 |  | 84.9 | 81.3 | 93.6 | 87.6 % of control | 78.9 % of control | 96.2 % of control | 79.3 % of control | 83.6 % of control | 
5 | Cl.Cl.OCCC/C(=C(\c1ccc(O)cc1)c1ccc(OCCN2CCNCC2)cc1)c1ccccc1 [Compound 7a, (Z)-4-(5-hydroxy-2-phenyl-1-(4-(2-(piperazin-1-yl)ethoxy)phenyl)pent-1-en-1-yl)phenol 2hydrochloride salt] | 59.5 |  | 64.7 | 32.1 | 49.0 |  |  |  |  |  | Functional Assay at 10 μM (% of control), Cpds (ERRγ): 2.71 % of control; Functional Assay, Cpds/Ref 5182 (ERRγ): 0.86
6 | CC(C)N1CCN(c2ccc(/C(=C(/CCCO)c3ccccc3)c3ccc(N)cc3)cc2)CC1 [Compound 26b] | 31.4 |  | 40.6 | 14.3 | 49.1 | 92.5 % of control | 98.7 % of control | 81.9 % of control | 99.2 % of control | 60.9 % of control | 
7 | CC(C)(C)OC(=O)N1CC(c2ccc(/C(=C(/CCCO)c3ccccc3)c3ccc(O)cc3)cc2)C1 [Compound 18t, tert-butyl (E)-3-(4-(5-hydroxy-1-(4-hydroxyphenyl)-2-phenylpent-1-en-1-yl)phenyl)azetidine-1-carboxylate] | 80.5 |  |  |  | 66.9 | 83 % of control | 93 % of control | 98 % of control | 100 % of control |  | Functional Assay at 10 μM (% of control), Cpds (ERRγ; 10 μM, 24 hours, AD293): 11.1 % of control; Functional Assay, Cpds/Ref 5182 (ERRγ; [5]): 1.11
8 | CC(C)N1CCC(c2ccc(/C(=C(/CCCO)c3ccccc3)c3ccc(O)cc3)cc2)C1 (racemic) [Compound 22s] | 75.6 |  | 35.4 | 21.7 | 34.9 |  |  |  |  |  | AUCall (in vivo; IV, 1 mg/kg): 0.44 μMh; Vss (in vivo; IV, 1 mg/kg): 13.2 L/kg; t1/2 (in vivo; IV, 1 mg/kg): 2.2 h; AUCINF (in vivo; PO, 10 mg/kg): 0.11 μMh; AUCall (in vivo; PO, 10 mg/kg): 0.09 μMh; BA (in vivo; PO, 10 mg/kg): 18.5%; Tmax (in vivo; PO, 10 mg/kg): 1.3 h; Cmax (in vivo; PO, 10 mg/kg): 20 nM
9 | CC(C)N1CCC(c2ccc(/C(=C(/CCCO)c3ccccc3)c3cccc(O)c3)cc2)CC1 [Compound 22h] | 43.8 |  | 22.4 | 16.2 | 46.9 | 97.9 % of control | >100 % of control | 69.1 % of control | >100 % of control | 72.2 % of control | 
10 | Cc1ccc(/C(=C(\CCCO)c2ccccc2)c2ccc(C3CCN(C)CC3)cc2)cc1 [Compound 22f] | 80.0 | 3.96 10^−6 cm/s | 78.1 | 66.3 | 97.0 |  |  |  |  |  | 
11 | CN1CCC(c2ccc(/C(=C(/CCCO)c3ccccc3)c3cccc(O)c3)cc2)CC1 [Compound 22ac] |  |  |  |  |  | >100 % of control | >100 % of control | 86.2 % of control | >100 % of control | 85 % of control | 
12 | CC(C)N1CCN(c2ccc(/C(=C(/CCCO)c3ccccc3)c3cccc(O)c3)cc2)CC1 [Compound 18k] | 54.9 | 1.29 10^−6 cm/s | 61.2 | 26.9 | 65.4 |  |  |  |  |  | Functional Assay at 10 μM (% of control), Cpds (ERRγ; 10 μM, 24 hours, AD293): 1.08 % of control; Functional Assay, Cpds/Ref 5182 (ERRγ; [5]): 1.14
13 | CC(=O)Nc1ccc(/C(=C(\CCCO)c2ccccc2)c2ccc(C3CCN(C4CC4)CC3)cc2)cc1 [Compound 27c] | 79.4 | 0.68 10^−6 cm/s | 81.2 | 42.1 | 83.5 |  |  |  |  |  | 
14 | OCCC/C(=C(\c1ccc(O)cc1)c1ccc(C2CCN(C3CC3)CC2)cc1)c1ccccc1 [Compound 22i] | 92.6 | 0.35 10^−6 cm/s | 91.5 | 83.6 | 36.0 |  |  |  |  |  | AUCINF (in vivo; IV, 1 mg/kg): 0.54 μMh; AUCall (in vivo; IV, 1 mg/kg): 0.49 μMh; Vss (in vivo; IV, 1 mg/kg): 11.7 L/kg; t1/2 (in vivo; IV, 1 mg/kg): 3.0 h; AUCINF (in vivo; PO, 10 mg/kg): 4.52 μMh; AUCall (in vivo; PO, 10 mg/kg): 2.24 μMh; BA (in vivo; PO, 10 mg/kg): 45.3%; Tmax (in vivo; PO, 10 mg/kg): 2.2 h; Cmax (in vivo; PO, 10 mg/kg): 380 nM
15 | Cc1ccc(/C(=C(\CCCO)c2ccccc2)c2ccc(C3CN(C(C)C)C3)cc2)cc1 [Compound 22e] |  | 6.16 10^−6 cm/s |  |  |  | 61.3 % of control | 58.4 % of control | 71.8 % of control | 94.9 % of control | 58.2 % of control | 
16 | CC(C)N1CCC(c2ccc(/C(=C(/CCCO)c3ccccc3)c3cccc(O)c3)cc2)C1 (racemic) [Compound 22u] | 44.3 |  | 10.0 | 17.2 | 40.0 |  |  |  |  |  | 
17 | OCCC/C(=C(\c1ccc(Br)cc1)c1ccc(N2CCNCC2)cc1)c1ccccc1 [Compound 20a, (E)-5-(4-bromophenyl)-4-phenyl-5-(4-(piperazin-1-yl)phenyl)pent-4-en-1-ol] | 84.7 |  |  |  | 65.1 | 76 % of control |  |  | 85 % of control | 55 % of control | Functional Assay at 10 μM (% of control), Cpds (ERRγ; 10 μM, 24 hours, AD293): 3.15 % of control
18 | CCN1CCC(c2ccc(C(=C(CCCO)c3ccccc3)c3cccc(O)c3)cc2)CC1 [Compound 22ae] | 32.2 |  | 33.7 | 21.5 | 48.4 | >100 % of control | >100 % of control | 68.4 % of control | 59.4 % of control | 81.5 % of control | 
